Assay results from ChEMBL document CHEMBL1759868, “Folate pro-drug of cystamine as an enhanced treatment for nephropathic cystinosis” (Bioorg Med Chem Lett, 2011).
Active and inactive are the calls of the source. No cut-off for these calls is given here.

Experiments:
[1] = system: Fibroblast; experiment: Decrease in intracellular cystine level in human cystinotic Fibroblast at 50 uM for 24 hrs by thiol assay; assay type: functional, cell-based
[2] = Cytotoxicity against human cystinotic Fibroblast at 50 uM for 72 hrs by Alamar blue assay; assay type: cell-based

Structure (SMILES) | Activity [1] | Activity [2]
Cl.NCCSSCCNC(=O)CC[C@H](NC(=O)c1ccc(NCc2cnc3nc(N)nc(O)c3n2)cc1)C(=O)NCCSSCCN | Active | Non-toxic
NCCS [CYSTEAMINE] | – | Non-toxic
